Reference: US10613104B2, “Assay to determine anticoagulants in blood or blood plasma” (ZAFENA AB, priority 2014, dated 2020)

Tested on: prothrombin time (PT) of normal plasma NKP
Test: Three wet-chemistry Owren PT methods (Simple Simon PT; 20, 10, 5 μL sample in 200 μL reagent) on normal plasma NKP with added anticoagulant
Format: biochemical
Description: Experimental work was performed with the commercially available ambient room temperature coagulation instrument, Simple Simon P T Zafena A B, Linköping, Sweden, with functions described in EP 1 636 595 B2. One instrument or reader was used for each PT-method. Alternatively, the same instrument could be used for all PT-methods.
The three instruments were used together standing next to one another on a laboratory bench in thermal equilibrium with the ambient room temperature of the laboratory.
The ambient room temperature in the laboratory where the work was done varied between 21° C. and 26° C.
The PT-reagent was the one delivered together with lot N223M of the Simple Simon PT product, a reagent of Owren-type that thus contains effective amounts of thromboplastin, fibrinogen and FV (the thromboplastin of rabbit brain origin and the fibrinogen and the FV of bovine blood plasma origin). Other Owren type reagents could also be used.
The reagent was in portions of 200 μL to which sample, citrated blood or citrated blood plasma, was added and mixed. The addition was by an end-to-end plastic capillary mounted at one end of a tubular body with a displacement mechanism in the other end, this to allow convenient mixing of sample and reagent. Such Mixxocaps with 10 μL capillaries are supplied with the Simple Simon PT product. To perform the experiments described, some Mixxocaps were fitted with 20 μL capillaries, or 5 μL capillaries instead of the 10 μL capillaries with which they were supplied by the manufacturer.
The ratios between the volume of blood or blood plasma to the volume of liquid reagent used in the experiments were 1:11, 1:21 and 1:41. Other ratios lying within the range of 1:5 and 1:100 or within the range of 1:2 and 1:200 could be used.
Anticoagulated normal plasma was the NKP product GHI-163 lot 10188, MediRox AB, Nyköping, Sweden.
It was further relevant that all three PT-methods were calibrated, according to the invention, to show INR 1.000 for unadulterated NKP, and INR 1.357 for the NKP 1:2. All primary INR values, the results that appeared on the instrument screens (one instrument or reader was used for each PT-method), were therefore transformed to the corrected/calibrated INRc by the formula A*INRexp(B) where a and b were selected to given NKP and NKP 1:2 their desired values, 1.000 and 1.357, respectively. The INR-value of the NKP 1:2 was calculated by the formula of Lindahl et al for the INR of corresponding to PT-activity of 50% (half of the 100% that equates to INR 1.000). Above the INR calibrated columns (INRc) there is an upper number and a lower number, these are the above mentioned A and B, respectively.
As deemed relevant the upper number is selected to make NKP 1:2 to show INRc 1.357.
Clinical levels of interest range from 50 to 1000 μg/L in blood plasma.
In the selected calibration INR 1.000 and INR 1.357 were assigned to NKP and NKP 1:2, respectively, which was the same relevant calibration as selected in Examples 1 and 3 above.

[1] = dabigatran 52 μg/L in NKP plasma
[2] = dabigatran 157 μg/L in NKP plasma
[3] = dabigatran 236 μg/L in NKP plasma
[4] = dabigatran 355 μg/L in NKP plasma
[5] = dabigatran 533 μg/L in NKP plasma
[6] = dabigatran 800 μg/L in NKP plasma
[7] = dabigatran 1000 μg/L in NKP plasma

In the case of dabigatran, the “INR 10 μL sample” value [1] was 1.09, the “INR 20 μL sample” value [1] was 1.16 and the “INRc 5 μL sample” value [1] was 1.01. The “INRc 10 μL sample” value [1] was 1.03, the “INRc 20 μL sample” value [1] was 1.16 and the INRo [1] was 0.98. The “ΔINRc 10 μL − 5 μL” value [1] was 0.03, the “ΔINRc 20 μL − 5 μL” value [1] was 0.15 and the “INR 10 μL sample” value [2] was 1.19. For the same substance, the “INR 20 μL sample” value [2] was 1.31, the “INRc 5 μL sample” value [2] was 1.08 and the “INRc 10 μL sample” value [2] was 1.14. The “INRc 20 μL sample” value [2] was 1.36, the INRo [2] was 1.02 and the “ΔINRc 10 μL − 5 μL” value [2] was 0.05. The “ΔINRc 20 μL − 5 μL” value [2] was 0.28, the “INR 5 μL sample” value [3] was 1.17 and the “INR 10 μL sample” value [3] was 1.30. The “INR 20 μL sample” value [3] was 1.53, the “INRc 5 μL sample” value [3] was 1.12 and the “INRc 10 μL sample” value [3] was 1.26. For the same substance, the “INRc 20 μL sample” value [3] was 1.67, the INRo [3] was 0.98 and the “ΔINRc 10 μL − 5 μL” value [3] was 0.14. For the same substance, the “ΔINRc 20 μL − 5 μL” value [3] was 0.55, the “INR 5 μL sample” value [4] was 1.28 and the “INR 10 μL sample” value [4] was 1.44. The “INR 20 μL sample” value [4] was 1.82, the “INRc 5 μL sample” value [4] was 1.22 and the “INRc 10 μL sample” value [4] was 1.41. The “INRc 20 μL sample” value [4] was 2.09, the INRo [4] was 1.03 and the “ΔINRc 10 μL − 5 μL” value [4] was 0.19. The “ΔINRc 20 μL − 5 μL” value [4] was 0.87, the “INR 5 μL sample” value [5] was 1.44 and the “INR 10 μL sample” value [5] was 1.70. The “INR 20 μL sample” value [5] was 2.38, the “INRc 5 μL sample” value [5] was 1.37 and the “INRc 10 μL sample” value [5] was 1.70. For the same substance, the “INRc 20 μL sample” value [5] was 2.98, the “ΔINRc 10 μL − 5 μL” value [5] was 0.33 and the “ΔINRc 20 μL − 5 μL” value [5] was 1.61. The “INR 5 μL sample” value [6] was 1.81, the “INR 10 μL sample” value [6] was 2.50 and the “INR 20 μL sample” value [6] was 4.22. The “INRc 5 μL sample” value [6] was 1.72, the “INRc 10 μL sample” value [6] was 2.62 and the “INRc 20 μL sample” value [6] was 6.36. The INRo [6] was 0.81, the “ΔINRc 10 μL − 5 μL” value [6] was 0.91 and the “ΔINRc 20 μL − 5 μL” value [6] was 4.64. For the same substance, the “INR 5 μL sample” value [7] was 2.53, the “INR 10 μL sample” value [7] was 3.55 and the “INR 20 μL sample” value [7] was 7.03. For the same substance, the “INRc 5 μL sample” value [7] was 2.39, the “INRc 10 μL sample” value [7] was 3.89 and the “INRc 20 μL sample” value [7] was 12.47. For the same substance, the INRo [7] was 0.88, the “ΔINRc 10 μL − 5 μL” value [7] was 1.51 and the “ΔINRc 20 μL − 5 μL” value [7] was 10.08. The “content at which the INRc-difference (20 μL minus 5 μL) reaches 0.5” value (normal plasma NKP, linear part of the graph (FIG. 8, FIG. 2)) was “about 200 μg/L”.
